A value given as a limit tells only on which side of the number the result lay.

Common to all, as to type: cell-based
The test system of experiment [1] is souches étudiées (Streptoccus fecalis, Escherichia coli, Proteus morganii, Staphylococcus). Description: Bacteriostatic activity (CMI), overall statement for the strains of Exemple 9. As to conditions: summary sentence in the text: good bacteriostatic activity, all strains of Exemple 9. How it is done:
(§1) On a préparé des mélanges de solutions limpides de l'échantillon et du milieu de culture, contenant un adjuvant de dissolution, ajouté à raison de la quantité minimale nécessaire.
(§2) On a introduit les solutions obtenues telles quelles ou diluées dans des tubes stériles sous un volume inférieur ou égal à 2,5 ml, que l'on a ensuite ajusté sinécessaire à 2,5 ml à l'aide d'eau stérile. On a alors ajouté à chaque tube 2,5 ml de bouillon nutritif préparé à concentration double, ensemencé de façon à contenir environ 1000 germes par ml et ayant la composition suivante : peptone bactériologique 10 g extrait de viande de boeuf 5 g chlorure de sodium 5 g eau déminéralisèe Q S P 500 ml pH ajusté à 7,2 à l'aide de potasse. stérilisation par fractions de 50 ml 20 mn à 120°C
Les souches testées sont cultivées sur milieu gélosé "trypticase-soja" dont la compositon de formulation : peptone trypsique de caséine 15 g peptone papaïnique de soja 5 g chlorure de sodium 5 g gélose 15 g eau déminéralisée Q S P 1000 ml pH ajusté à l'aide de potasse à 7,3 stérilisation 20 mn à 120°C. […]

Experiment [2] concerns Escherichia coli (ATCC 10536). Description: Bacteriostatic activity (CMI), dilution technique in liquid medium, Exemple 9. To be noted: read after 24 H incubation at 35°C. How it is done: as §1, §2
(§3) Les souches testées sont cultivées sur milieu gélosé "trypticase-soja" dont la compositon de formulation : peptone trypsique de caséine 15 g peptone papaïnique de soja 5 g chlorure de sodium 5 g gélose 15 g eau déminéralisée Q S P 1000 ml pH ajusté à l'aide de potasse à 7,3 stérilisation 20 mn à 120°C.
(§4) Après incubation 18 H à 35°C on ensemence à l'aide de ces cultures des tubes de milieu liquide "trypticase-soja" de formulation : peptone trypsique de caséine 17 g peptone papaïnique de soja 3 g chlorure de sodium 5 g phosphate dipotassique 2,5 g glucose 2,5 g eau déminéralisée Q S P 1000 ml pH ajusté à 7,3 à l'aide de potasse stérilisation 20 mn à 120°C.
(§5) Après 18 H d'incubation à 35°C, les cultures obtenues sont homogénéisées puis diluées.
(§6) Les quatres souches suivantes ont été testées : • Streptoccus fecalis (ATCC 9790) • Escherichia coli (ATCC 10536) • Proteus morganii (ATCC 53185) • Staphylococcus (ATCC 6538P)
(§7) On a effectué trois essais, en utilisant les gammes de concentrations suivantes de dipalmitate-6,6′-saccharose oxydé
(§8) On a effectué l'incubation des tubes à 35°C. Les lectures ont été faites après 18, 24 et 48 H en comparaison avec des tubes témoins de croissance de chaque microorganisme testé, en présence d'un agent tensio-actif : Tween 80 (marque de fabrique d'Atlas Chemical Industries, Inc) pour l'essai N° 1 et Triton X 100, (marque de fabrique de Rohm & Haas Co) pour les essais N°2 et N°3. Les résultats, donnés dans le Tableau I ci-dessous, relevés après 24 H d'incubation, indiquent la concentration (mg/ml) testée en dipalmitate-6,6′-saccharose oxydé à partir de laquelle on observe une absence de développement bactérien pour chacune des souches étudiées.

Experiment [3] deals with Staphylococcus (ATCC 6538P). The description is as above. As to conditions: for concentration à partir de laquelle on observe une absence de développement bactérien: Triton X 100, read after 24 H incubation at 35°C. How it is done: as §1, §2, §3, §4, §5, §6, §7, §8
Experiment [4] relates to Streptoccus fecalis (ATCC 9790). Described as above. As to conditions: read after 24 H incubation at 35°C. The protocol: as §1, §2, §3, §4, §5, §6, §7, §8
Experiment [5] deals with Proteus morganii (ATCC 53185). The description is as above. To be noted: read after 24 H incubation at 35°C. The protocol: as §1, §2, §3, §4, §5, §6, §7, §8
Setting [6] is: Essai N°1, Tween 80, tested 0,1 - 1 - 10 mg/ml.
The mark [7] stands for this setting: Essai N°2, Triton X 100, tested 0,1 - 1,6 mg/ml.
[8] abbreviates: Essai N°3, Triton X 100, tested 0,006 - 3,2 mg/ml.

Regarding dipalmitate-6,6′-saccharose oxydé, the “concentration minimale inhibitrice (CMI)” value in experiment [1] is reported as 1,6 mg/ml. The “concentration à partir de laquelle on observe une absence de développement bactérien” value in experiment [2] (setting [6]) is 1 mg/mL; in experiment [2] (setting [7]), 0,8 mg/ml; in experiment [2] (setting [8]), 1,6 mg/ml; in experiment [3] (Essai N°2, tested 0,1 - 1,6 mg/ml), < 0,1 mg/ml; in experiment [3] (Essai N°3, tested 0,006 - 3,2 mg/ml), 0,01 mg/ml; in experiment [4] (setting [6]), 1 mg/mL. Also, the “concentration à partir de laquelle on observe une absence de développement bactérien” value is 0,8 mg/ml in experiment [4] (setting [7]); 0,8 mg/ml in experiment [4] (setting [8]); 1 mg/mL in experiment [5] (setting [6]); 0,2 mg/ml in experiment [5] (setting [7]); 0,2 mg/ml in experiment [5] (setting [8]). In addition, in experiment [3] (summary sentence in the text on Exemple 9), the “concentration suffisante pour inhiber son développement” value is ≤ 0,01 mg/ml.
